The experiment deals with T1, BrabA.11339.a (Brucella abortus, UniProt Q2YQ74).
T1 construct: gene BAB1_1016
As to conditions: Mn2+ dinuclear active site at dimer interface.

Like-named read-outs stand apart in the source and are kept apart here.

T1 sequence (Q2YQ74 2-272 limits assumed): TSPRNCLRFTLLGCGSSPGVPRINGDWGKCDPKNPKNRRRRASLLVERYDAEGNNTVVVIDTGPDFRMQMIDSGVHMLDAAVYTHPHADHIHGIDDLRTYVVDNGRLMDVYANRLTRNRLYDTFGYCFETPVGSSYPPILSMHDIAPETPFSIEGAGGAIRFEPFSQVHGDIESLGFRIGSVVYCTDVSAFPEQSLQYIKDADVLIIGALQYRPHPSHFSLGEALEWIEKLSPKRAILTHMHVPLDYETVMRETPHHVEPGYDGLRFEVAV

`Nc1ncnc2c1ncn2[C@@H]1O[C@H](COP(=O)(O)O)[C@@H](O)[C@H]1O` [AMP]: under “AMP found in cocrystals grown with 1 mM AMPPNP and 2 mM MgCl2 (1.7 A and 1.6 A)”, the X-ray crystallography entry is “very solid electron density could be observed for GMP and AMP, respectively”. Regarding `Nc1nc2c(ncn2[C@@H]2O[C@H](COP(=O)(O)O)[C@@H](O)[C@H]2O)c(=O)[nH]1` [GMP], for the setting “GMP copurified from E. coli, partially occupied (3md7, 1.27 A), full density in cocrystal with 1 mM GMPPNP and 2 mM MgCl2 (3py6, 1.7 A)”, the X-ray crystallography entry is listed as “In the native structure, a partially occupied GMP molecule can be observed in the immediate proximity”.

For the origin of these results see PMC3169410 (Acta Crystallographica Section F: Structural Biology and …, 2011).
